In this experiment the test system is WEHI. Kind of experiment: Inhibition of CpG-oligodeoxynucleotides-induced immunostimulation in mouse WEHI 231 cells. It is filed as functional, cell-based. The following applies: Mus musculus, WEHI.

Usually EC50 stands for the concentration that produces a half-maximal response. A high value points to lower potency in that assay. `Cc1cccc(-c2cc(NCCC3CCCN3C)c3ccccc3n2)c1` (centres undefined) gave an EC50 of 14.1 nM.

As for `CN(C)CCNc1cc(-c2ccc(CN3CCN(C)CC3)cc2)nc2ccccc12`, the EC50 was 7.08 nM.

As for `CN(C)CCCNc1cc(-c2ccc(N3CCN(C)CC3)cc2)nc2ccccc12`, the midpoint of the response, the EC50, lay at 1 nM.

On to `CCN1CCCC1CNc1cc(-c2ccc(F)cc2)nc2ccccc12` (centres undefined), for which the midpoint of the response, the EC50, lay at 17 nM. Compared with the last compound, the EC50 is about 17-fold higher.

`CN1CCN(c2ccc(-c3cc(NCCCN4CCOCC4)c4ccccc4n3)cc2)CC1`: the half-maximal effective concentration (EC50) was 2.19 nM. Against the preceding compound, the EC50 is about 7.8-fold lower.

Compound `CN1CCN(CCCNc2cc(-c3ccc(CN4CCN(C)CC4)cc3)nc3ccccc23)CC1` had an EC50 of 6.76 nM. This EC50 is about 3.1-fold higher than that of the compound before.

Turning to `Cc1ccc(-c2cc(NCCN(C)C)c3ccccc3n2)cc1`, the EC50 is 12.3 nM.

`CN1CCCC1CCNc1cc(-c2ccc(F)cc2)nc2ccccc12` (centres undefined): the EC50 was 13.2 nM.

In turn, `CN1CCN(c2ccc(-c3cc(NCCC4CCCN4C)c4ccccc4n3)cc2)CC1` (centres undefined) showed an EC50 of 2 nM.

Regarding `CN(C)CCNc1cc(-c2ccc(N3CCCCC3)cc2)nc2ccccc12`, the EC50 was 5.37 nM.

`CN(C)CCCNc1cc(-c2ccc(N3CCCCC3)cc2)nc2ccccc12` showed an EC50 of 15.8 nM.

Turning to `CN1CCN(CCNc2cc(-c3ccc(N4CCN(C)CC4)cc3)nc3ccccc23)CC1`, a half-maximal response (EC50) required 1.51 nM. Against the preceding compound, the EC50 is about 10-fold lower.

With `Cc1ccc(-c2cc(NCCCN(C)C)c3ccccc3n2)cc1`, the EC50 was 11.5 nM.

For the compound `Cc1cccc(-c2cc(NCCCN(C)C)c3ccccc3n2)c1`, the EC50 was 13.2 nM.

`CN1CCN(Cc2cccc(-c3cc(NCCC4CCCN4C)c4ccccc4n3)c2)CC1` (centres undefined): the EC50 is 7.76 nM.

Consider `CN1CCN(c2cc(-c3ccc4ccccc4c3)nc3ccc(-c4ccccc4)cc23)CC1`, for which the EC50 was 741 nM.

Take `CN(C)CCNc1cc(-c2ccc(C(F)(F)F)cc2)nc2ccc(F)cc12`: the response was half-maximal at 407 nM (EC50). Compared with the last compound, the EC50 is about 1.8-fold lower.

In turn, `CN(C)CCNc1cc(-c2ccccc2F)nc2ccc(F)cc12` gave an EC50 of 417 nM.

In turn, `c1cc(CNCCN2CCOCC2)cc(-c2cc(NCCCN3CCCC3)c3ccccc3n2)c1` had an EC50 of 537 nM. This EC50 and that of the compound before are within 1.5-fold of each other.

In the case of `Cc1ccccc1-c1cc(NCCCN2CCOCC2)c2ccccc2n1`, the EC50 is 646 nM. This EC50 and that of the compound before are within 1.5-fold of each other.

`Fc1ccc(-c2cc(NCCN3CCOCC3)c3ccccc3n2)cc1`: the EC50 is 417 nM. This EC50 lies about 1.5-fold lower than the previous one.

In the case of `CN(C)CCNc1cc(-c2cccc(F)c2)nc2cc(C(F)(F)F)ccc12`, the EC50 was 550 nM. The EC50 values of the last two compounds are within 1.5-fold of each other.

`CN1CCN(c2ccc(-c3cc(NCCN4CCOCC4)c4ccccc4n3)cc2)CC1` had an EC50 of 3.31 nM.

The compound `c1ccc2cc(-c3cc(NCCCN4CCOCC4)c4ccccc4n3)ccc2c1` gave an EC50 of 3.55 nM.

As to `CN(C)CCNc1cc(-c2ccc3ccccc3c2)nc2ccc(-c3ccccc3)cc12`, the EC50 was 6.46 nM. This EC50 is about 1.8-fold higher than that of the compound before.

Take `CN(C)CCCCNc1cc(-c2ccccc2NCCN(C)C)nc2ccccc12`: the response was half-maximal at 5.89 nM (EC50).

With `Cc1cccc(-c2cc(NCCN3CCOCC3)c3ccccc3n2)c1`, the midpoint of the response, the EC50, lay at 646 nM.

In the case of `CN(C)CCNc1ccccc1-c1cc(NCCN(C)C)c2ccccc2n1`, a half-maximal response (EC50) required 6.46 nM.

As for `COc1ccc(-c2cc(NCCN(C)C)c3ccc(C(F)(F)F)cc3n2)cc1F`, the EC50 was 407 nM.

As to `Cc1ccc(-c2cc(NCCN3CCOCC3)c3ccccc3n2)cc1`, the EC50 was 490 nM. The EC50 values of the last two compounds are within 1.5-fold of each other.

`Cc1ccc(-c2cc(Nc3cc(CN4CCCC4)c(O)c(CN4CCCC4)c3)c3ccccc3n2)cc1`: the 50% effective concentration (EC50) is 1.78 nM.

On to `CN1CCCC1CCNc1cc(-c2ccc3ccccc3c2)nc2ccccc12` (centres undefined), for which the EC50 is 2.04 nM. This EC50 and that of the compound before are within 1.5-fold of each other.

`CN(C)CCNc1cc(-c2ccccc2Cl)nc2ccc(Cl)cc12` had an EC50 of 468 nM.

In turn, `c1cc(CNCCCN2CCOCC2)cc(-c2cc(NCCN3CCOCC3)c3ccccc3n2)c1` showed an EC50 of 12 nM.

`CN(C)CCCCCNc1cc(-c2ccc(F)cc2)nc2ccccc12`: the EC50 is 15.5 nM.

The compound `CN1CCN(c2ccc(-c3cc(NCCN4CCCC4)c4ccccc4n3)cc2)CC1` gave an EC50 of 2.4 nM.

In turn, `CCN1CCCC1CNc1cc(-c2ccc3ccccc3c2)nc2ccccc12` (centres undefined) gave an EC50 of 5.37 nM.

`c1ccc2cc(-c3cc(NCCCN4CCCC4)c4ccccc4n3)ccc2c1` had an EC50 of 13.5 nM.

`CN1CCN(CCCCNc2cc(-c3ccc(N4CCN(C)CC4)cc3)nc3ccccc23)CC1` gave an EC50 of 4.9 nM. Compared with the last compound, the EC50 is about 2.8-fold lower.

`CN(C)CCNc1cc(-c2ccc(N3CCN(C)CC3)cc2)nc2ccc(Cl)cc12` had an EC50 of 1.45 nM.

On to `CN(C)CCCCCCNc1cc(-c2ccc(N3CCN(C)CC3)cc2)nc2ccccc12`, for which the EC50 was 1.91 nM.

Consider `CN(C)CCNc1cc(-c2ccccc2N2CCN(C)CC2)nc2ccc(F)cc12`, for which a half-maximal response (EC50) required 13.2 nM.

`CN(C)CCCCNc1cc(-c2ccc(N3CCN(C)CC3)cc2)nc2ccccc12` had an EC50 of 1.23 nM.

The compound `Cc1ccc(-c2cc(Nc3cc(CN4CCN(C)CC4)c(O)c(CN4CCN(C)CC4)c3)c3ccccc3n2)cc1` gave an EC50 of 1.45 nM.

`CN1CCN(c2ccc(-c3cc(NCCCCN4CCCC4)c4ccccc4n3)cc2)CC1` had an EC50 of 5.5 nM.

`CN(C)CCCNc1cc(-c2ccc(CN3CCN(C)CC3)cc2)nc2ccccc12` had an EC50 of 9.12 nM.

Compound `CN(C)CCNc1cc(-c2ccc(N3CCN(C)CC3)cc2)nc2ccccc12` showed an EC50 of 0.759 nM.

The compound `CN1CCN(Cc2ccc(-c3cc(NCCN4CCCC4)c4ccccc4n3)cc2)CC1` gave an EC50 of 3.24 nM.

In turn, `CN(C)CCCCCNc1cc(-c2ccc(N3CCN(C)CC3)cc2)nc2ccccc12` gave an EC50 of 1.45 nM.

`CN1CCN(Cc2cc(Nc3cc(-c4ccc(F)cc4)nc4ccccc34)cc(CN3CCN(C)CC3)c2O)CC1`: the EC50 was 1.74 nM.

On to `Cc1ccc(-c2cc(NCCCN3CCN(C)CC3)c3ccccc3n2)cc1`, for which the EC50 was 13.8 nM.

The compound `CN(C)CCCNc1cc(-c2ccc3ccccc3c2)nc2ccccc12` gave an EC50 of 11 nM.

`Oc1c(CN2CCCC2)cc(Nc2cc(-c3ccc4ccccc4c3)nc3ccccc23)cc1CN1CCCC1` showed an EC50 of 1.15 nM.

`CN1CCCC1CCNc1cc(-c2ccccc2F)nc2ccccc12` (centres undefined) showed an EC50 of 204 nM. This EC50 lies about 180-fold higher than the previous one.

The compound `Cc1cccc(-c2cc(NCCCCN(C)C)c3ccccc3n2)c1` showed an EC50 of 13.8 nM.

Compound `CN(C)CCCNCc1cccc(-c2cc(NCCCN3CCN(C)CC3)c3ccccc3n2)c1` had an EC50 of 525 nM.

On to `CN1CCN(CCCCNc2cc(-c3ccc(F)cc3)nc3ccccc23)CC1`, for which the EC50 is 15.8 nM.

In turn, `Cc1ccccc1-c1cc(NCCCN(C)C)c2ccccc2n1` showed an EC50 of 186 nM.

Turning to `CN(C)CCNc1cc(-c2ccc(F)cc2)nc2cc(C(F)(F)F)ccc12`, the EC50 is 490 nM.

Compound `CN(C)CCCNc1cc(-c2cccc(CN3CCN(C)CC3)c2)nc2ccccc12` showed an EC50 of 3.98 nM.

Compound `Fc1ccc(-c2cc(NCCCN3CCCC3)c3ccccc3n2)cc1` showed an EC50 of 191 nM.

In turn, `CN(C)CCNc1cc(-c2cccc(F)c2)nc2ccc(F)cc12` showed an EC50 of 282 nM.

`CN1CCN(c2ccc(-c3cc(N4CCN(C)CC4)c4ccccc4n3)cc2)CC1` gave an EC50 of 2.69 nM.

`Cc1cccc(-c2cc(NCCCN3CCCC3)c3ccccc3n2)c1` had an EC50 of 195 nM.

Compound `CN(C)CCNc1cc(-c2ccc3ccccc3c2)nc2ccccc12` showed an EC50 of 9.12 nM. This EC50 is about 21-fold lower than that of the compound before.

Compound `Oc1ccc(Nc2cc(-c3ccc4ccccc4c3)nc3ccccc23)cc1` had an EC50 of 316 nM.

Compound `CN(C)CCCCNc1cc(-c2ccc3ccccc3c2)nc2ccccc12` had an EC50 of 3.72 nM.

Compound `CN1CCN(Cc2cc(Nc3cc(-c4ccc5ccccc5c4)nc4ccccc34)cc(CN3CCN(C)CC3)c2O)CC1` gave an EC50 of 0.24 nM.

With `CN(C)CCCCCCNc1cc(-c2ccc3ccccc3c2)nc2ccccc12`, the EC50 was 5.89 nM.

Source of the values: ChEMBL document CHEMBL1144506, “Fujita-Ban QSAR analysis and CoMFA study of quinoline antagonists of immunostimulatory CpG-oligodeoxynucleotides” (Bioorg Med Chem, 2007).
